The assay deals with RNA-directed RNA polymerase (Hepacivirus hominis, UniProt O39930). In words: Inhibitory activity against Hepatitis C RNA dependent RNA polymerase Nonstructural protein 5B (NS5B polymerase) expressed from baculovirus-infected Sf9 insect cells.

SMILES strings stand for the structures.

Sequence of RNA-directed RNA polymerase (O39930 whole entry): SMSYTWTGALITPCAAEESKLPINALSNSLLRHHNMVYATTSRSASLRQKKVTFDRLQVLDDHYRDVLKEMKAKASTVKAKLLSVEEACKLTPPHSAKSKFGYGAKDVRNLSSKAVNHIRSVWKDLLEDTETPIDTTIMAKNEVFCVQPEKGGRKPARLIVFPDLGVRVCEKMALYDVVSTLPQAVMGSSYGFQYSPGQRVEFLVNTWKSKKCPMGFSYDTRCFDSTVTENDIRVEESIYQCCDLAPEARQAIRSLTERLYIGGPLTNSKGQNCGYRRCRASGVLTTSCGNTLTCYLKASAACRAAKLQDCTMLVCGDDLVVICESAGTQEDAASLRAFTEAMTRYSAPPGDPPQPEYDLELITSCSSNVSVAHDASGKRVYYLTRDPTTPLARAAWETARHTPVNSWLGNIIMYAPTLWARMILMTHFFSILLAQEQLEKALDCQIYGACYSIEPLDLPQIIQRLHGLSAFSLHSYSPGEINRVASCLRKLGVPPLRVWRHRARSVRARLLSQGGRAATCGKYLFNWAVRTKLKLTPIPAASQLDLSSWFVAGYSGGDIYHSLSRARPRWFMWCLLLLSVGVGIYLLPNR

For orientation: IC50 means the point on the concentration scale where inhibition reaches its midpoint. A lower IC50 goes with greater potency in that assay. `O=C(O)[C@H](Cc1ccccc1)N(Cc1ccc(-c2cc3ccccc3o2)s1)C(=O)c1ccc(Cl)cc1Cl` displayed an IC50 of 8.6 µM.
`O=C(O)[C@H](Cc1ccccc1)N(Cc1cccc(Br)c1)C(=O)c1ccc(Cl)cc1` yielded an IC50 of 11 µM.
The compound `O=C(O)[C@H](Cc1ccccc1)N(Cc1cccc(Br)c1)C(=O)c1ccc(Cl)cc1Cl` had an IC50 of 3.5 µM.
In the case of `O=C(O)[C@H](Cc1ccccc1)N(Cc1cccc(F)c1)C(=O)c1ccc(Cl)cc1Cl`, the 50% inhibitory concentration (IC50) came out at 3.2 µM.
For `O=C(O)[C@H](Cc1ccccc1)N(Cc1cccnc1)C(=O)c1ccc(Cl)cc1Cl` the value was 11 µM; for `O=C(O)[C@H](Cc1ccccc1)N(Cc1cccc(C(F)(F)F)c1)C(=O)c1ccc(Cl)cc1Cl`, 1.7 µM; for `O=C(O)[C@H](Cc1ccccc1)N(Cc1cccc(Br)c1)C(=O)c1ccccc1Cl`, 15 µM.
The same measure for `O=C(O)[C@H](Cc1ccccc1)N(Cc1ccc(Br)cc1)C(=O)c1ccc(Cl)cc1Cl`: 9.1 µM; for `O=C(O)[C@@H](Cc1ccccc1)N(Cc1cccc(Br)c1)C(=O)c1ccc(Cl)cc1Cl`: 8.6 µM.
In turn, `O=C(O)[C@H](Cc1ccccc1)N(Cc1ccc(Br)s1)C(=O)c1ccc(Cl)cc1Cl` displayed an IC50 of 3.1 µM.
Compound `O=C(O)CN(Cc1cccc(Br)c1)C(=O)c1ccc(Cl)cc1Cl` gave an IC50 of 53 µM.
The same measure for `O=C(O)[C@H](Cc1ccccc1)N(Cc1ccc(-c2nccs2)cc1)C(=O)c1ccc(Cl)cc1Cl`: 5.7 µM.
Regarding `O=C(O)[C@H](Cc1ccccc1)N(Cc1ccccc1)C(=O)c1ccc(Cl)cc1Cl`, the IC50 was found to be 8 µM.
`N#Cc1ccc(CN(C(=O)c2ccc(Cl)cc2Cl)[C@@H](Cc2ccccc2)C(=O)O)cc1` showed an IC50 of 8 µM.
For `N#Cc1ccccc1CN(C(=O)c1ccc(Cl)cc1Cl)[C@@H](Cc1ccccc1)C(=O)O`, the midpoint of inhibition, the IC50, lay at 6 µM.
Take `COc1ccc(-c2ccc(Cl)cc2)c(COc2ccc(-c3nc4cc(C(=O)O)ccc4n3C3CCCCC3)cc2)c1`: the IC50 amounted to 0.62 µM.
For `O=C(O)[C@H](Cc1ccccc1)N(Cc1ccccc1Br)C(=O)c1ccc(Cl)cc1Cl` the value was 8 µM; for `O=C(O)[C@H](Cc1ccccc1)N(Cc1cccc([N+](=O)[O-])c1)C(=O)c1ccc(Cl)cc1Cl`, 0.7 µM.
Take `O=C(O)[C@H](Cc1ccccc1)N(Cc1cccc(Cl)c1)C(=O)c1ccc(Cl)cc1Cl`: the IC50 stood at 1.4 µM.
In turn, `Cc1cccc(CN(C(=O)c2ccc(Cl)cc2Cl)[C@@H](Cc2ccccc2)C(=O)O)c1` showed an IC50 of 1.8 µM.
For `N#Cc1cccc(CN(C(=O)c2ccc(Cl)cc2Cl)[C@@H](Cc2ccccc2)C(=O)O)c1` the value was 0.8 µM; for `O=C(O)[C@H](Cc1ccccc1)N(Cc1ccc[n+]([O-])c1)C(=O)c1ccc(Cl)cc1Cl`, 2.7 µM.

Values taken from ChEMBL document CHEMBL1144916, “Identification of N,N-disubstituted phenylalanines as a novel class of inhibitors of hepatitis C NS5B polymerase” (J Med Chem, 2003).
